Reference: US8278311B2, “Substituted pyrimidine derivatives” (Abbott Laboratories, priority 2008, dated 2012)

Experiments:
histamine H4 receptor [1] = target: T1, histamine H4 receptor (Homo sapiens, UniProt Q9H3N8); assay: 3H-histamine competition binding assay; conditions: membranes of HEK-293 cells transiently transfected with histamine H4 receptor; [3H]-histamine, 25° C., 1 hour; read-out: Binding assay Potency (Ki)
T1 construct: expressed in transfected cells
Description: The potency of compounds of the invention in displacing ^3H-histamine in competition binding assays is assessed by methods described in Esbenshade, et al., Biochemical Pharmacology (2004), vol. 68, pp. 933-945. In this assay, membranes were prepared from HEK-293 cells transiently transfected with the pClNeo expression vector harboring the histamine H4 receptor by homogenization of the cells on ice in TE buffer (50 mM Tris-HCl buffer, pH 7.4, containing 5 mM EDTA), 1 mM benzamidine, 2 μg/mL aprotinin, 1 μg/mL leupeptin, and 1 μg/mL pepstatin. The homogenate was centrifuged at 40,000 g for 20 minutes at 4° C. This step was repeated, and the resulting pellet was resuspended in TE buffer. Aliquots were frozen at −70° C. until needed. On the day of assay, membranes were thawed and diluted with TE buffer. Competition radioligand binding assays were performed with increasing concentrations of test compound in the presence of [^3H]-histamine incubated at 25° C. for 1 hour in a total volume of 0.5 mL of 50 mM Tris, 5 mM EDTA, pH 7.4. All binding reactions were terminated by filtration under vacuum onto polyethylenimine (0.3%) presoaked Unifilters (PerkinElmer Life Sciences) or Whatman GF/B filters (Whatman, Clifton, N.J.) followed by three brief washes with 4 mL of ice-cold TE buffer. Bound radiolabel was determined by liquid scintillation counting. For all of the radioligand competition binding assays, IC50 values and Hill slopes were determined by Hill transformation of the data and Ki values were determined by the Cheng-Prusoff equation. The following table of representative histamine H4 receptor ligands is provided, along with potency values: […]

[2] = tested on: carrageenan-induced thermal hyperalgesia; assay: acute model of carrageenan-induced thermal hyperalgesia (hotbox assay); type: in vivo; conditions: assessed 30 minutes after dosing
Description: To assess the effectiveness of representative compounds of the invention against acute model inflammatory pain, animals were tested in an acute model of carrageenan-induced thermal hyperalgesia (see for example, Honore, et al. Behavioural Brain Research (2006) vol. 167 pp. 355-364; Porreca, et al. Journal of Pharmacology and Experimental Therapeutics (2006) vol. 318 pp. 195-205). Carrageenan was injected into the test paw of the animal, and after 90 minutes, the test drug was administered by intraperitoneal dosing; the effect on thermal hyperalgesia was assessed in a hotbox assay which was done 30 minutes after the intraperitoneal dosing of the test drug, and the MPE (maximal percent effect) reported by comparison to the control paw (not injected with carrageenan), according to 100 times the withdrawal latency of the carrageenan injected paw (in seconds) divided by the withdrawal latency of the control (not injected with carrageenan) paw. […] Representative compounds are active in this model, with preferred compounds of the invention active in the model at doses of about 100 micromoles/kg of body weight.

histamine H4 receptor [3] = target: T1, histamine H4 receptor; assay: in vitro assay of histamine H4 activity using FLIPR-Ca+2 flux; type: cell-based; conditions: HEK-293 cells stably expressing histamine H4 receptor and Gαqi5, Fluo-4; Kb for antagonists and inverse agonists, EC50 for partial agonists
Source text: There are many methods available to show the effectiveness of compounds as histamine H4 receptor ligands. Histamine H4 receptors from mammalian species have been cloned. Methods to clone, express, and assess the potency and functional activity of such cloned genes are well known to those skilled in the art of molecular biology. Examples of methods of cloning and expressing histamine H4 receptors, and of assessing the potency and functional activity are described in Nguyen, et al. Molecular Pharmacology (2001) vol. 59 pp. 427-433; Zhu, et al. Molecular Pharmacology (2001) vol. 59 pp. 434-441; Coge, et al., Biochemical and Biophysical Research Communications (2001) vol. 284, pp. 301-309; Liu, et al. Molecular Pharmacology (2001) vol. 59 pp. 420-426; Liu, et al. Journal of Pharmacology and Experimental Therapeutics (2001) v. 299, pp. 121-130; and Thurmond, et al. Journal of Pharmacology and Experimental Therapeutics (2004) v. 309, pp. 404-413. In the present case, to determine the potency and effectiveness of representative compounds of this invention as histamine-H4 receptor ligands (H4 receptor ligands), the following tests were conducted according to previously described methods (see Esbenshade, et al., Biochemical Pharmacology (2004), vol. 68, pp. 933-945, and in Krueger, et al., Journal of Pharmacology and Experimental Therapeutics (2005) v. 314, pp. 271-281): histamine H4 receptors were cloned and stably expressed in HEK-293 (human embryonic kidney) cells coexpressing a Gαqi5. Before testing, cells are loaded with a Ca+^2 sensitive fluorescent dye, in this case Fluo-4 (Invitrogen, Carlsbad, Calif.). In the case of partial agonist or agonist ligands, addition of compound to the cells leads to the increase in intracellular Ca^+2 which is detected by FLIPR (Fluorescence Imaging Plate Reader; Molecular Devices, Sunnyvale, Calif.) technology. In a similar manner, compounds that are antagonists or inverse agonists, block the increase in fluorescence induced by the full histamine H4 agonist histamine, and partial agonists reduce the amount of fluorescence induced by the full histamine H4 agonist histamine. The fluorescence intensities measured before addition of the test compound are subtracted from the fluorescence intensities at later time points. Peak response values determined at each concentration of ligand are expressed as a percentage of the response obtained with the full agonist histamine. Concentration versus response data are analyzed to obtain compound potency as Kb values for antagonists and inverse agonists and as EC50 values for partial agonists.

[4] = 100 micromole/kg injected intraperitoneally

T1 sequence (Q9H3N8 whole entry, species assumed): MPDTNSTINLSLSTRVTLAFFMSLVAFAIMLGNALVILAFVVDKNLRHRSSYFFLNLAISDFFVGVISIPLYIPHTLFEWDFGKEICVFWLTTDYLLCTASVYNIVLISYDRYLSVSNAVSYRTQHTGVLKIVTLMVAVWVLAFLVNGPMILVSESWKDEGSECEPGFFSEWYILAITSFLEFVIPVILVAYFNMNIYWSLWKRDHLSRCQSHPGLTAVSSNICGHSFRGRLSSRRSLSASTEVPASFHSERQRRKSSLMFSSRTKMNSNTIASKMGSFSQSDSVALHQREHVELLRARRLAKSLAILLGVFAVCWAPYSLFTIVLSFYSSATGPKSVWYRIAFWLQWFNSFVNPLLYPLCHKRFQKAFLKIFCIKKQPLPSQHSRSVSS

Compound	Ki (histamine H4 receptor [1]) [nM]	MPE (maximal percent effect) [2, 4] [%]	Potency (histamine H4 receptor [3]) [nM]	MPE (maximal percent effect) ([2]; 30 micromole/kg injected intraperitoneally) [%]
Nc1nc2c(c(N3CCNCC3)n1)CCC1=C2[C@@H]2CCCC[C@@H]2O1 (single isomer, unassigned) [Example 3, (−)-(7aS*,11aS*)-4-piperazin-1-yl-5,6,7a,8,9,10,11,11a-octahydro[1]benzofuro[2,3-h]quinazolin-2-amine]	16.6	47	5.9	
Nc1nc2c(c(N3CCNCC3)n1)CCC1=C2[C@H]2CCCC[C@H]2O1 (single isomer, unassigned) [Example 4, (+)-(7aR*,11aR*)-4-piperazin-1-yl-5,6,7a,8,9,10,11,11a-octahydro[1]benzofuro[2,3-h]quinazolin-2-amine]	3	63	4.5	
Nc1nc2c(c(N3CCNCC3)n1)CCC1=C2C2CCCCC2O1 (centres unmarked) [Example 1, 4-piperazin-1-yl-5,6,7a,8,9,10,11,11a-octahydro[1]benzofuro[2,3-h]quinazolin-2-amine]	5.8	68	4.7	48
CN[C@@H]1CCN(c2nc(N)nc3c2CCCC2C4C=CC(CC4)C32)C1 (stereo partly drawn) [Example 25, 4-[(3R)-3-(methylamino)pyrrolidin-1-yl]-6,7,7a,8,11,11a-hexahydro-5H-8,11-ethanobenzo[6,7]cyclohepta[1,2-d]pyrimidin-2-amine]	5.6		24.0	
CN[C@@H]1CCN(c2nc(N)nc3c2CCCC2C4CCC(CC4)C32)C1 (stereo partly drawn) [Example 28, 4-[(3R)-3-(methylamino)pyrrolidin-1-yl]-6,7,7a,8,9,10,11,11a-octahydro-5H-8,11-ethanobenzo[6,7]cyclohepta[1,2-d]pyrimidin-2-amine]	5.5		21.9	
